Data from patent publication US8492589B2, “Alkynyl phenyl derivative compounds for treating ophthalmic diseases and disorders” (Acucela Inc., priority 2007, dated 2013).

Target: T1, visual cycle isomerase (Bovine RPE microsome membranes) (Bos taurus, UniProt Q28175)
T1 construct: Bovine Retinal Pigment Epithelium (RPE) microsome membranes were the source of a visual cycle isomerase; from tissue; host or cells: bovine retinal pigment epithelium microsome membranes
T1 sequence (Q28175 2-533 limits assumed): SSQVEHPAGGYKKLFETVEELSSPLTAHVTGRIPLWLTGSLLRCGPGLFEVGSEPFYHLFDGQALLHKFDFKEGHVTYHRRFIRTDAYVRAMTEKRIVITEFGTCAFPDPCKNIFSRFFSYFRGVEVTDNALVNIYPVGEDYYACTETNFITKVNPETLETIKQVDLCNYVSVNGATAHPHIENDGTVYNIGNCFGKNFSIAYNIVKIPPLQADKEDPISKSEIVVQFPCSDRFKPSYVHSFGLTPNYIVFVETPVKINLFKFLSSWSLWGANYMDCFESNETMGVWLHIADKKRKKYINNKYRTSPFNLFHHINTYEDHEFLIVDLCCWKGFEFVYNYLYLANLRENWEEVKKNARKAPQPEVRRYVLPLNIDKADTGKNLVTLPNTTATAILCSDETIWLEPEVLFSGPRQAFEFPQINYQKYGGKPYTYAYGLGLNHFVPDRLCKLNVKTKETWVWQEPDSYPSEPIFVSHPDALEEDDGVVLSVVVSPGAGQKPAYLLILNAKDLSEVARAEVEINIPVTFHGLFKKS
Assay: In vitro isomerase inhibition assay, bovine RPE microsome membranes
Type: biochemical
Conditions: bovine RPE microsomes; 11-cis retinol formation
Method: The capability of alkynyl phenyl-linked amine derivative compounds to inhibit the activity of a visual cycle isomerase was determined.
Bovine Retinal Pigment Epithelium (RPE) microsome membranes were the source of a visual cycle isomerase.
Crude RPE microsome extracts were thawed in a 37° C. water bath, and then immediately placed on ice. 50 ml crude RPE microsomes were placed into a 50 ml Teflon-glass homogenizer (Fisher Scientific, catalog no. 0841416M) on ice, powered by a hand-held DeWalt drill, and homogenized ten times up and down on ice under maximum speed. This process was repeated until the crude RPE microsome solution was homogenized. The homogenate was then subjected to centrifugation (50.2 Ti rotor (Beckman, Fullerton, Calif.), 13,000 RPM; 15360 Rcf) for 15 minutes at 4° C. The supernatant was collected and subjected to centrifugation at 42,000 RPM (160,000 Rcf; 50.2 Ti rotor) for 1 hour at 4° C. The supernatant was removed, and the pellets were suspended in 12 ml (final volume) cold 10 mM MOPS buffer, pH 7.0. The resuspended RPE membranes in 5 ml aliquots were homogenized in a glass-to-glass homogenizer (Fisher Scientific, catalog no. K885500-0021) to high homogeneity. Protein concentration was quantified using the BCA protein assay according to the manufacturer's protocol (Pierce, Rockford, Ill.). The homogenized RPE preparations were stored at −80° C.
Recombinant human apo cellular retinaldehyde-binding protein (CRALBP) was cloned and expressed according to standard methods in the molecular biology art (see Crabb et al., Protein Science 7:746-57 (1998); Crabb et al., J. Biol. Chem. 263:18688-92 (1988)). Briefly, total RNA was prepared from confluent ARPE19 cells (American Type Culture Collection, Manassas, Va.), cDNA was synthesized using an oligo(dT)12-18 primer, and then DNA encoding CRALBP was amplified by two sequential polymerase chain reactions (see Crabb et al., J. Biol. Chem. 263:18688-92 (1988); Intres, et al., J. Biol. Chem. 269:25411-18 (1994); GenBank Accession No. L34219.1). The PCR product was sub-cloned into pTrcHis2-TOPO TA vector according to the manufacturer's protocol (Invitrogen Inc., Carlsbad, Calif.; catalog no. K4400-01), and then the sequence was confirmed according to standard nucleotide sequencing techniques. Recombinant 6×His-tagged human CRALBP was expressed in One Shot TOP 10 chemically competent E. coli cells (Invitrogen), and the recombinant polypeptide was isolated from E. coli cell lysates by nickel affinity chromatography using nickel (Ni) Sepharose XK16-20 columns for HPLC (Amersham Bioscience, Pittsburgh, Pa.; catalog no. 17-5268-02). The purified 6×His-tagged human CRALBP was dialyzed against 10 mM bis-tris-Propane (BTP) and analyzed by SDS-PAGE. The molecular weight of the recombinant human CRALBP was approximately 39 kDal.
Alkkynyl phenyl-linked amine derivative compounds and control compounds were reconstituted in ethanol to 0.1 M. Ten-fold serial dilutions (10^−2, 10^−3, 10^−4, 10^−5, 10^−6 M) in ethanol of each compound were prepared for analysis in the isomerase assay.
The isomerase assay was performed in 10 mM bis-tris-propane (BTP) buffer, pH 7.5, 0.5% BSA (diluted in BTP buffer), 1 mM sodium pyrophosphate, 20 μM all-trans retinol (in ethanol), and 6 μM apo-CRALBP. The test compounds (2 μl) (final […] dilution of serial dilution stocks) were added to the above reaction mixture to which RPE microsomes were added. The same volume of ethanol was added to the control reaction (absence of test compound). Bovine RPE microsomes (9 μl) (see above) were then added, and the mixtures transferred to 37° C. to initiate the reaction (total volume=150 μl). The reactions were stopped after 30 minutes by adding methanol (300 μl). Heptane was added (300 μl) and mixed into the reaction mixture by pipetting. Retinoid was extracted by agitating the reaction mixtures, followed by centrifugation in a microcentrifuge. […]

| SMILES | IC50 |
| --- | --- |
| CCCC(O)(C#Cc1cccc([C@H](O)CCN)c1)CCC [Compound 100, (R)-4-((3-(3-Amino-1-Hydroxypropyl)Phenyl)Ethynyl)Heptan-4-ol] | ≤ 1 µM |
| CCC(O)(C#Cc1cccc(CCCN)c1)CC [Example 1, 1-(3-(3-Aminopropyl)phenyl)-3-ethylpent-1-yn-3-ol] | ≤ 1 µM |
| CCCC(O)(C#Cc1cccc(CCCN)c1)CCC [Example 2, 4-((3-(3-Aminopropyl)phenyl)ethynyl)heptan-4-ol] | ≤ 1 µM |
| NCCCc1cccc(C#CC2(O)CCCCC2)c1 [Example 11, 1-((3-(3-Aminopropyl)phenyl)ethynyl)cyclohexanol] | ≤ 1 µM |
| CCCC(O)(C#Cc1cccc(C(O)CCN)c1)CCC (stereo not drawn) [Example 19, 4-((3-(3-Amino-1-hydroxypropyl)phenyl)ethynyl)heptan-4-ol] | ≤ 1 µM |
| NCCCc1cccc(C#CC2(O)CCCC2)c1 [Example 24, 1-((3-(3-Aminopropyl)phenyl)ethynyl)cyclopentanol] | ≤ 1 µM |
| NCCOc1cccc(C#CC2(O)CCCC2)c1 [Example 31, 1-((3-(2-Aminoethoxy)phenyl)ethynyl)cyclopentanol] | ≤ 1 µM |
| CC(C)C(O)(C#Cc1cccc(CCCN)c1)C(C)C [Example 32, 1-(3-(3-Aminopropyl)phenyl)-3-isopropyl-4-methylpent-1-yn-3-ol] | ≤ 1 µM |
| NCCCc1cccc(C#Cc2ccccc2)c1 [Example 37, 3-(3-(Phenylethynyl)phenyl)propan-1-amine] | ≤ 1 µM |
| NCCCc1cccc(C#CC2CCCC2)c1 [Example 38, 3-(3-(Cyclopentylethynyl)phenyl)propan-1-amine] | ≤ 1 µM |
| NCCC(O)c1cccc(C#CCCCCO)c1 (stereo not drawn) [Example 50, 6-(3-(3-Amino-1-hydroxypropyl)phenyl)hex-5-yn-1-ol] | ≤ 1 µM |
| NCCOc1cccc(C#CC2(O)CCCCC2)c1 [Example 57, 1-((3-(2-Aminoethoxy)phenyl)ethynyl)cyclohexanol] | ≤ 1 µM |
| CC(=O)NCCCc1cccc(C#CC2(O)CCCCC2)c1 [Example 60, N-(3-(3-((1-Hydroxycyclohexyl)Ethynyl)Phenyl)Propyl)Acetamide] | ≤ 10 µM |
| NCCOc1cccc(C#Cc2cccnc2)c1 [Example 62, 2-(3-(Pyridin-3-ylethynyl)phenoxy)ethanamine] | ≤ 10 µM |
| NCCC(O)c1cccc(C#CCCc2ccccc2)c1 (stereo not drawn) [Example 69, 3-Amino-1-(3-(4-phenylbut-1-ynyl)phenyl)propan-1-ol] | ≤ 1 µM |
| NCCOc1cccc(C#CCCCCO)c1 [Example 74, 6-(3-(2-Aminoethoxy)phenyl)hex-5-yn-1-ol] | ≤ 1 µM |
| NCCOc1cccc(C#CC2(O)CCCCCC2)c1 [Example 78, 1-((3-(2-aminoethoxy)phenyl)ethynyl)-cycloheptanol] | ≤ 1 µM |
| NCCOc1cccc(C#CC2CCCC2)c1 [Example 79, 2-(3-(Cyclopentylethynyl)phenoxy)-ethanamine] | ≤ 1 µM |
| NCCOc1cccc(C#CC2CCCCC2)c1 [Example 80, 2-(3-(Cyclohexylethynyl)phenoxy)ethanamine] | ≤ 1 µM |
| NCCOc1cccc(C#Cc2ccccc2)c1 [Example 81, 2-(3-(Phenylethynyl)phenoxy)-ethanamine] | ≤ 10 µM |
| NCCC(O)c1cccc(C#CC2(O)CCCCC2)c1 (stereo not drawn) [Example 99, 1-((3-(3-Amino-1-hydroxypropyl)phenyl)ethynyl)cyclohexanol] | ≤ 1 µM |

Results, then the compound that gave them:

| IC50 | SMILES |
| --- | --- |
| ≤ 1 µM | CCCC(O)(C#Cc1cccc([C@@H](O)CCN)c1)CCC [Compound 101, (S)-4-((3-(3-Amino-1-Hydroxypropyl)Phenyl)Ethynyl)Heptan-4-ol] |
| ≤ 1 µM | CCCC(C#Cc1cccc(CCCN)c1)(CCC)OC [Example 4, 3-(3-(3-Methoxy-3-propylhex-1-ynyl)phenyl)propan-1-amine] |
| ≤ 1 µM | CC(C)(O)C#Cc1cccc(CCCN)c1 [Example 7, 4-(3-(3-Aminopropyl)phenyl)-2-methylbut-3-yn-2-ol] |
| ≤ 1 µM | CCCC(O)C#Cc1cccc(CCCN)c1 (stereo not drawn) [Example 8, 1-(3-(3-Aminopropyl)phenyl)hex-1-yn-3-ol] |
| ≤ 1 µM | CCCC(O)(C#Cc1cccc(OCCN)c1)CCC [Example 18, 4-((3-(2-Aminoethoxy)phenyl)ethynyl)heptan-4-ol] |
| ≤ 1 µM | CC(C)(C)C(C)(O)C#Cc1cccc(CCCN)c1 (stereo not drawn) [Example 25, 1-(3-(3-Aminopropyl)phenyl)-3,4,4-trimethylpent-1-yn-3-ol] |
| ≤ 10 µM | NCCCc1cccc(C#C[C@@H](O)c2ccccc2)c1 [Example 26, (S)-3-(3-(3-Aminopropyl)phenyl)-1-phenylprop-2-yn-1-ol] |
| ≤ 1 µM | CCC(O)(C#Cc1cccc(OCCN)c1)CC [Example 27, 1-(3-(2-Aminoethoxy)phenyl)-3-ethylpent-1-yn-3-ol] |
| ≤ 1 µM | CC(C)C(O)(C#Cc1cccc(OCCN)c1)C(C)C [Example 28, 1-(3-(2-Aminoethoxy)phenyl)-3-isopropyl-4-methylpent-1-yn-3-ol] |
| ≤ 1 µM | COc1ccccc1C#Cc1cccc(CCCN)c1 [Example 36, 3-(3-((2-Methoxyphenyl)Ethynyl)Phenyl)Propan-1-Amine] |
| ≤ 1 µM | NCCC(O)c1cccc(C#CC2CCCC2)c1 (stereo not drawn) [Example 47, 3-Amino-1-(3-(cyclopentylethynyl)phenyl)propan-1-ol] |
| ≤ 1 µM | NCCC(O)c1cccc(C#CCCO)c1 (stereo not drawn) [Example 51, 4-(3-(3-Amino-1-hydroxypropyl)phenyl)but-3-yn-1-ol] |
| ≤ 1 µM | NCCC(O)c1cccc(C#CC2CCCCC2)c1 (stereo not drawn) [Example 52, 3-Amino-1-(3-(Cyclohexylethynyl)Phenyl)Propan-1-ol] |
| ≤ 1 µM | COc1ccccc1C#Cc1cccc(C(O)CCN)c1 (stereo not drawn) [Example 54, 3-Amino-1-(3-((2-Methoxyphenyl)Ethynyl)Phenyl)Propan-1-ol] |
| ≤ 1 µM | NCCOc1cccc(C#CC2(O)CCSCC2)c1 [Example 55, 4-((3-(2-Aminoethoxy)Phenyl)Ethynyl)Tetrahydro-2H-Thiopyran-4-ol] |
| ≤ 1 µM | NCCC(O)c1cccc(C#CC2(O)CCCCCC2)c1 (stereo not drawn) [Example 59, 1-((3-(3-Amino-1-hydroxypropyl)phenyl)ethynyl)cycloheptanol] |
| ≤ 1 µM | NCCCc1cccc(C#Cc2ccccn2)c1 [Example 61, 3-(3-(Pyridin-2-ylethynyl)phenyl)propan-1-amine] |
| ≤ 10 µM | NCCCc1cccc(C#Cc2ccncc2)c1 [Example 63, 3-(3-(Pyridin-4-ylethynyl)phenyl)propan-1-amine] |
